No end group written: not given here.
Columns and labels:
Assay in all cases: biochemical
Format in all cases: binding
HLA-A*3301 = HLA-A*3301 (Homo sapiens, UniProt P04439, A270S/D185E/E176V/E277Q/E87N/F33T/G231S/H175R/I121M/I218V/I322F/K168Q/K210R/L300P/L318F/M331R/P217A/Q86R/Q94H/R138Q/T323A/T345S/T97I/V358M/Y195H)
HLA-A*6801 = HLA-A*6801 (Homo sapiens, UniProt P04439, A269V/D185E/E176V/E277Q/E87N/F33Y/G231S/I121M/I166T/I218V/L180W/L300P/L318F/N151K/P208A/P217A/Q86R/R169H/T345S)
HLA-A*0301 = HLA-A*0301 (Homo sapiens, UniProt P04439)
HLA-A*1101 = HLA-A*1101 (Homo sapiens, UniProt P04439, A114D/D185E/E176A/F33Y/L180Q/S129P/T187R)
HLA-A*3101 = HLA-A*3101 (Homo sapiens, UniProt P04439, A270S/D185E/E176V/E277Q/F33T/G231S/G80R/H175R/I121M/I218V/I322F/K168Q/L300P/L318F/M331R/P217A/Q94H/R138Q/T323A/T345S/T97I/V358M)

In the case of SLGPGPGTK, the IC50 (HLA-A*3301) is reported as 152000 nM, the IC50 (HLA-A*6801) is reported as 3520 nM and the IC50 (HLA-A*0301) is reported as 7.8 nM. For the same sequence, the IC50 (HLA-A*1101) was 5.8 nM and the IC50 (HLA-A*3101) was 4390 nM.

Work on SLYGKTLEEK yielded an IC50 (HLA-A*3301) of 6520 nM, an IC50 (HLA-A*6801) of 29 nM and an IC50 (HLA-A*0301) of 7.9 nM. It also gave an IC50 (HLA-A*1101) of 6.8 nM and an IC50 (HLA-A*3101) of 1040 nM.

For SSFDIKSEVK, the IC50 (HLA-A*3301) was 70300 nM, the IC50 (HLA-A*6801) was 31 nM and the IC50 (HLA-A*0301) was 1900 nM. It also gave an IC50 (HLA-A*1101) of 19 nM and an IC50 (HLA-A*3101) of 19800 nM.

In the case of STGPGPGVVRR, the IC50 (HLA-A*3301) is reported as 5980 nM, the IC50 (HLA-A*6801) is reported as 5.8 nM and the IC50 (HLA-A*0301) is reported as 18700 nM. The IC50 (HLA-A*1101) was 367 nM and the IC50 (HLA-A*3101) was 95 nM.

In the case of STLGPGPGVRR, the IC50 (HLA-A*3301) is reported as 670 nM, the IC50 (HLA-A*6801) is reported as 3.8 nM and the IC50 (HLA-A*0301) is reported as 892 nM. The IC50 (HLA-A*1101) was 19 nM and the IC50 (HLA-A*3101) was 42 nM.

STLPGPGPGRR gave an IC50 (HLA-A*3301) of 1890 nM, an IC50 (HLA-A*6801) of 25 nM and an IC50 (HLA-A*0301) of 297 nM. For the same sequence, the IC50 (HLA-A*1101) was 19 nM and the IC50 (HLA-A*3101) was 61 nM.

SVCRSSRTR was tested, and the IC50 (HLA-A*3301) was 547 nM, the IC50 (HLA-A*6801) was 17 nM and the IC50 (HLA-A*0301) was 323 nM. It also gave an IC50 (HLA-A*1101) of 97 nM and an IC50 (HLA-A*3101) of 249 nM.

Sequence SVYGETLER has an IC50 (HLA-A*3301) of 160 nM, an IC50 (HLA-A*6801) of 17 nM and an IC50 (HLA-A*0301) of 44 nM. For the same sequence, the IC50 (HLA-A*1101) was 11 nM and the IC50 (HLA-A*3101) was 235 nM.

TFLEKLTNK showed an IC50 (HLA-A*3301) of 148 nM, an IC50 (HLA-A*6801) of 918 nM and an IC50 (HLA-A*0301) of 6840 nM. The IC50 (HLA-A*1101) was 815 nM and the IC50 (HLA-A*3101) was 451 nM.

Sequence TLEQTVKK has an IC50 (HLA-A*3301) of over 75300 nM, an IC50 (HLA-A*6801) of 21400 nM and an IC50 (HLA-A*0301) of 4770 nM. It also gave an IC50 (HLA-A*1101) of 203 nM and an IC50 (HLA-A*3101) of over 100000 nM.

TLYQIQVMKR showed an IC50 (HLA-A*3301) of 558 nM, an IC50 (HLA-A*6801) of 90 nM and an IC50 (HLA-A*0301) of 361 nM. The IC50 (HLA-A*1101) was 164 nM and the IC50 (HLA-A*3101) was 397 nM.

TSVHEIELR was tested, and the IC50 (HLA-A*3301) was 5950 nM, the IC50 (HLA-A*6801) was 12 nM and the IC50 (HLA-A*0301) was over 64300 nM. The IC50 (HLA-A*1101) was 872 nM and the IC50 (HLA-A*3101) was 1040 nM.

With TVQPGPGPGK the IC50 (HLA-A*3301) was 68600 nM, the IC50 (HLA-A*6801) was 28 nM and the IC50 (HLA-A*0301) was 41 nM. It also gave an IC50 (HLA-A*1101) of 2.5 nM and an IC50 (HLA-A*3101) of 1340 nM.

With VFADLRIVYK the IC50 (HLA-A*3301) was 200 nM, the IC50 (HLA-A*6801) was 273 nM and the IC50 (HLA-A*0301) was 2090 nM. The IC50 (HLA-A*1101) was 127 nM and the IC50 (HLA-A*3101) was 402 nM.

For VSHAQLPAK, the IC50 (HLA-A*3301) was 1400 nM, the IC50 (HLA-A*6801) was 13500 nM and the IC50 (HLA-A*0301) was 378 nM. The IC50 (HLA-A*1101) was 9.5 nM and the IC50 (HLA-A*3101) was 46 nM.

With VSIRVGGQIK the IC50 (HLA-A*3301) was over 61700 nM, the IC50 (HLA-A*6801) was 1960 nM and the IC50 (HLA-A*0301) was 642 nM. The IC50 (HLA-A*1101) was 91 nM and the IC50 (HLA-A*3101) was 50700 nM.

VSIRVGGQTK showed an IC50 (HLA-A*3301) of 39000 nM, an IC50 (HLA-A*6801) of 290 nM and an IC50 (HLA-A*0301) of 341 nM. For the same sequence, the IC50 (HLA-A*1101) was 21 nM and the IC50 (HLA-A*3101) was 29900 nM.

VTIKIEGQLK showed an IC50 (HLA-A*3301) of 58000 nM, an IC50 (HLA-A*6801) of 27 nM and an IC50 (HLA-A*0301) of 361 nM. The IC50 (HLA-A*1101) was 69 nM and the IC50 (HLA-A*3101) was 5080 nM.

With VTIKVGGQLK the IC50 (HLA-A*3301) was 47600 nM, the IC50 (HLA-A*6801) was 127 nM and the IC50 (HLA-A*0301) was 188 nM. It also gave an IC50 (HLA-A*1101) of 59 nM and an IC50 (HLA-A*3101) of 6060 nM.

VTIRIGGQLK gave an IC50 (HLA-A*3301) of 65800 nM, an IC50 (HLA-A*6801) of 25 nM and an IC50 (HLA-A*0301) of 51 nM. For the same sequence, the IC50 (HLA-A*1101) was 14 nM and the IC50 (HLA-A*3101) was 4460 nM.

Sequence VTIRVGGQLK has an IC50 (HLA-A*3301) of 86100 nM, an IC50 (HLA-A*6801) of 28 nM and an IC50 (HLA-A*0301) of 43 nM. It also gave an IC50 (HLA-A*1101) of 13 nM and an IC50 (HLA-A*3101) of 3590 nM.

VTLDIQSTK showed an IC50 (HLA-A*3301) of 1950 nM, an IC50 (HLA-A*6801) of 237 nM and an IC50 (HLA-A*0301) of 78 nM. The IC50 (HLA-A*1101) was 13 nM and the IC50 (HLA-A*3101) was 2050 nM.

Sequence VTVRIGGMQK has an IC50 (HLA-A*3301) of 44400 nM, an IC50 (HLA-A*6801) of 155 nM and an IC50 (HLA-A*0301) of 54 nM. For the same sequence, the IC50 (HLA-A*1101) was 13 nM and the IC50 (HLA-A*3101) was 2580 nM.

VTVRVGGQLK was tested, and the IC50 (HLA-A*3301) was over 72300 nM, the IC50 (HLA-A*6801) was 141 nM and the IC50 (HLA-A*0301) was 216 nM. For the same sequence, the IC50 (HLA-A*1101) was 19 nM and the IC50 (HLA-A*3101) was 8240 nM.

Work on VTVYGPGPGWK yielded an IC50 (HLA-A*3301) of over 103000 nM, an IC50 (HLA-A*6801) of 206 nM and an IC50 (HLA-A*0301) of 1150 nM. For the same sequence, the IC50 (HLA-A*1101) was 18 nM and the IC50 (HLA-A*3101) was over 9000 nM.

VTVYYGPGPGK was tested, and the IC50 (HLA-A*3301) was 102000 nM, the IC50 (HLA-A*6801) was 30 nM and the IC50 (HLA-A*0301) was 310 nM. It also gave an IC50 (HLA-A*1101) of 24 nM and an IC50 (HLA-A*3101) of 9720 nM.

Work on YLFNQHIKK yielded an IC50 (HLA-A*3301) of 7970 nM, an IC50 (HLA-A*6801) of 14 nM and an IC50 (HLA-A*0301) of 14 nM. The IC50 (HLA-A*1101) was 7.8 nM and the IC50 (HLA-A*3101) was 4920 nM.

YSVYGTTLER showed an IC50 (HLA-A*3301) of 6900 nM, an IC50 (HLA-A*6801) of 19 nM and an IC50 (HLA-A*0301) of 430 nM. For the same sequence, the IC50 (HLA-A*1101) was 96 nM and the IC50 (HLA-A*3101) was 2140 nM.

YTFVFADLR was tested, and the IC50 (HLA-A*3301) was 6.6 nM, the IC50 (HLA-A*6801) was 2.9 nM and the IC50 (HLA-A*0301) was 3630 nM. It also gave an IC50 (HLA-A*1101) of 8.1 nM and an IC50 (HLA-A*3101) of 20 nM.
